US9359317B2, “Small molecule inhibitors of HIV proteases” (Purdue Research Foundation, priority 2008, dated 2016)

Each molecule was assayed against HIV Protease (Human immunodeficiency virus type 1 group M subtype B, UniProt P04585) (assay: Inhibition of HIV Protease). Settings: Table 1, Inhibition of HIV Protease by compounds of formula drawing 46.
Type: biochemical

Point of comparison: Cc1ccc(S(=O)(=O)NC(C(=O)O)C2CC(c3ccccc3)OC2CC(O)CO)cc1 (stereo not shown) [compound 22], Ki 27 nM. Against it:
- Cc1ccc(S(=O)(=O)NC(C(=O)O)C2CC(c3ccc4ccccc4c3)OC2CC(O)c2ccccc2)cc1 (stereo not shown) [compound 26] — 5.6-fold higher, 150 nM
- CC=CC1OC(c2ccccc2)CC1C(NS(=O)(=O)c1ccc(C)cc1)C(=O)O (stereo not shown) [compound 33] — higher, > 1000 nM
- Cc1ccc(S(=O)(=O)NC(C(=O)O)C2CC(c3ccccc3)OC2CC(O)c2ccccc2)cc1 (stereo not shown) [compound 21] — 6.8-fold lower, 4 nM
- C=CCC1OC(c2ccccc2)CC1C(NS(=O)(=O)c1ccc(F)cc1)C(=O)O (stereo not shown) [compound 18] — higher, > 1000 nM
- C=CCC1OC(c2ccccc2)CC1C(NS(=O)(=O)c1ccc(C)cc1)C(=O)O (stereo not shown) [compound 25] — higher, > 1000 nM

Same assay, conditions: Table 2, Inhibition of HIV Protease

With COc1ccc(S(=O)(=O)NC(C(=O)O)C2CC3Cc4cc(OC)ccc4C2O3)cc1 (stereo not shown) [compound 2] the Ki was > 1000 nM.
